Values joined by “and” are separate entries in the source; they are usually repeats but may differ in a detail not shown here. Identical values can stand only once. Like-named read-outs stand apart in the source and are kept apart here.
Tests used:
[1] = calibration standards, assigned values, no reference given; cited from earlier work
[2] = calibration standards, assigned values, no reference given; cited from earlier work; remark: listed apart in the source
[3] = tested on: normal human astrocytes (NHA); assay: Cytotoxicity (MTS), normal human astrocytes; type: cell-based; details: 72 h, normal human astrocytes, MTS assay
Experimental: (§1) The chosen group of ligands was further examined for their ability to inhibit proliferation across multiple cancer cell lines related to the CNS system (1321N1, U87MG, LN-229, and U-251). These cell lines were characterized by different mutation profiles, the main one being the variable status of the p53 protein. In detail, U87MG cells have a wild-type p53 protein, while astrocytoma and the rest of GBM cells harbor mutated p53 protein. Additional assays were performed on MCF7 breast cancer and AsPC-1 pancreatic cancer cells. The wide range of tested lines was aimed at screening the anticancer potential of the tested compounds. The first represents one of the most common and the second one of the most aggressive cancers in the world. Comparing the activity of compounds on GBM cells to other types of cancer may reveal their selectivity and usefulness in targeted therapies. The cytotoxicity of the compounds on normal human astrocytes (NHA) and Feline catus astrocyte (PG-4) was determined. Tests on normal lines serve to verify the potential toxicity of the tested compounds on healthy cells. Due to the targeting of CNS tumors, astrocytes were selected as normal lines.
(§2) The detailed procedure is presented in previous publications.[53] Briefly, the study utilized various human cancer and normal cell lines, including LN-229 (glioblastoma), MCF7 (breast carcinoma), HepG2 (hepatoma), U-251 (glioblastoma), U87MG (glioblastoma), AsPC-1 (pancreatic adenocarcinoma), and NHA (normal human astrocytes). Cells were cultured in appropriate media, supplemented with FBS, antibiotics, and other supplements, and incubated at 37 °C with 5% CO2. Compounds were dissolved in DMSO, prepared at various concentrations (1–25 μM), and applied to the cells for 72 h. Cell viability was assessed using the MTS assay, and the inhibitory concentration (IC50) was calculated using GraphPad Prism 8.0. Each compound was tested in triplicate across multiple experiments.

U-251 glioblastoma cells = assay: Antiproliferative activity (MTS), U-251; type: cell-based, human; details: MTS assay, 72 h
Experimental: as §1, with “These” for “The chosen group of ligands was further examined for their ability to inhibit proliferation across multiple cancer cell lines related to the CNS system (1321N1, U87MG, LN-229, and U-251). These”
(§3) The detailed procedure is presented in previous publications.[53] […] Cells were cultured in appropriate media, supplemented with FBS, antibiotics, and other supplements, and incubated at 37 °C with 5% CO2. […] Cell viability was assessed using the MTS assay, and the inhibitory concentration (IC50) was calculated using GraphPad Prism 8.0. Each compound was tested in triplicate across multiple experiments.

[4] = tested on: LN-229 glioblastoma cells; assay: Antiproliferative activity (MTS), LN-229; type: cell-based, human; details: MTS assay, 72 h
Experimental: as §1, with “These” for “The chosen group of ligands was further examined for their ability to inhibit proliferation across multiple cancer cell lines related to the CNS system (1321N1, U87MG, LN-229, and U-251). These”
as §3

U87MG glioblastoma cells = assay: Antiproliferative activity (MTS), U87MG; type: cell-based, human; details: MTS assay
Experimental: as §1, with “These” for “The chosen group of ligands was further examined for their ability to inhibit proliferation across multiple cancer cell lines related to the CNS system (1321N1, U87MG, LN-229, and U-251). These”
as §3
Supplementary materials - Biological research
B) U87MG glioblastoma multiforme line.
and U87MG glioblastoma multiforme line for C) PP 3; D) PP 6; E) PP 8; F) PP 10; G) PP 11; H) PP

[5] = tested on: AsPC-1 pancreatic cancer cells; assay: Antiproliferative activity (MTS), AsPC-1; type: cell-based, human; details: MTS assay, 72 h
Experimental: as §1, §2

MCF7 breast cancer cells = assay: Antiproliferative activity (MTS), MCF7; type: cell-based, human; details: MTS assay, 72 h
Experimental: as §1, with “These” for “The chosen group of ligands was further examined for their ability to inhibit proliferation across multiple cancer cell lines related to the CNS system (1321N1, U87MG, LN-229, and U-251). These”
as §3

5-HT6 = biological target: T1, 5-HT6 (Homo sapiens, UniProt P50406); assay: Radioligand binding assay, 5-HT6 ([3H]-LSD); details: HEK293 cell line with human 5-HT6R; 2 nM [3H]-LSD
T1 construct: expressed in transfected cells; host or cells: HEK293
T1 sequence (P50406 whole entry): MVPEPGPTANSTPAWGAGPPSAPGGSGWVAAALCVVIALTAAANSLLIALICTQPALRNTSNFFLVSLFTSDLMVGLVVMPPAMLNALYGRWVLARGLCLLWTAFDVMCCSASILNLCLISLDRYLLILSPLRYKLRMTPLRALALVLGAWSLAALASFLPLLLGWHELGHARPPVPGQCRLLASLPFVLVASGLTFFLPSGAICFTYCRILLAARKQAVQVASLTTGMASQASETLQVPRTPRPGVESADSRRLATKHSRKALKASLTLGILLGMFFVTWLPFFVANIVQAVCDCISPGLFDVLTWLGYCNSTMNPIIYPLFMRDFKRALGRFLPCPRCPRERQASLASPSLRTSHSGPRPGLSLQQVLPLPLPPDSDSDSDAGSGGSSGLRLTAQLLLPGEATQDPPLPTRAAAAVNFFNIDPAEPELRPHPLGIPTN
Experimental: Ligand affinity for 5-HT6 receptors was subsequently tested with a radioligand binding assay, using the HEK293 cell line with human 5-HT6R, aiming to select compounds with the strongest affinity. Three compounds belonging to 2-naphthalenesulfonamide derivatives of 3,4-dihydroquinazolin-2-amines were obtained (Table 1).
The detailed procedure is presented in previous publications.[53] Assays were performed by incubating for 1 h at 37 °C (room temperature for 5-HT1A) in 200 μL volumes on 96-well plates. The reaction was terminated by rapid filtration using Unifilter plates, and radioactivity on the filters was measured with a PerkinElmer Microbeta plate reader. Radioligands used were:
Eight concentrations (10^–4 to 10^–11 M) were tested in triplicate for each compound. Inhibition constants (Ki) were calculated using the Cheng–Prusoff equation.[54] The results are expressed as the means of at least two independent experiments.

[6] = Affinity to phospholipids, CHI IAM (Valko protocol); type: physicochemical; details: IAM column
Experimental: (§4) Lipophilicity and affinity for phospholipids for each investigated molecule were assessed. Additionally, selected compounds with the highest biological activities have been characterized by their affinity plasma proteins. All experiments were performed using protocols developed by Valko.[35] These methods facilitated the calculation of chromatographic hydrophobicity indices (CHI) and plasma protein binding percentages (%PPB) in a biochromatographic experiment, with results compared to the reference. A detailed description of the experiments is provided in the Supporting Information (SI), along with the raw data. […] Although high lipophilicity may limit the medical use of the analyzed compounds since they may tend to accumulate excessively in the human body, it is remarkable that several clinically used drugs also have high lipophilicity. […] (Table 5).
(§5) The detailed procedure is presented in previous publications.[53] High-performance liquid chromatography (HPLC) analyses were conducted using the Prominence-1 LC-2030C 3D system (Shimadzu) with a DAD detector, employing three different chromatographic columns with specific stationary phases and mobile phases. The analysis was performed at 30 °C with a flow rate of 1.5 mL/min for IAM and C18 columns, and 0.9 mL/min for the Chiralpak column. Calibration standards for the columns were sourced from various suppliers and dissolved in dimethyl sulfoxide. Detection occurred in the UV range (190–300 nm) with a 5 μL injection volume. Each compound was analyzed in triplicate. Retention times for the tested compounds and calibration standards are provided in the Supporting Information (Tables S1 and S2).

1321N1 astrocytoma cells = assay: Antiproliferative activity (MTS), 1321N1; type: cell-based, human; details: MTS assay
Experimental: as §1, with “These” for “The chosen group of ligands was further examined for their ability to inhibit proliferation across multiple cancer cell lines related to the CNS system (1321N1, U87MG, LN-229, and U-251). These”
as §3
Supplementary materials - Biological research […]

[7] = biological target: T2, human serum albumin (HSA) (Homo sapiens, UniProt P02768); assay: HSA binding by biochromatography (HSA column); type: in vitro ADME
T2 construct: purchased
T2 sequence (P02768 25-609): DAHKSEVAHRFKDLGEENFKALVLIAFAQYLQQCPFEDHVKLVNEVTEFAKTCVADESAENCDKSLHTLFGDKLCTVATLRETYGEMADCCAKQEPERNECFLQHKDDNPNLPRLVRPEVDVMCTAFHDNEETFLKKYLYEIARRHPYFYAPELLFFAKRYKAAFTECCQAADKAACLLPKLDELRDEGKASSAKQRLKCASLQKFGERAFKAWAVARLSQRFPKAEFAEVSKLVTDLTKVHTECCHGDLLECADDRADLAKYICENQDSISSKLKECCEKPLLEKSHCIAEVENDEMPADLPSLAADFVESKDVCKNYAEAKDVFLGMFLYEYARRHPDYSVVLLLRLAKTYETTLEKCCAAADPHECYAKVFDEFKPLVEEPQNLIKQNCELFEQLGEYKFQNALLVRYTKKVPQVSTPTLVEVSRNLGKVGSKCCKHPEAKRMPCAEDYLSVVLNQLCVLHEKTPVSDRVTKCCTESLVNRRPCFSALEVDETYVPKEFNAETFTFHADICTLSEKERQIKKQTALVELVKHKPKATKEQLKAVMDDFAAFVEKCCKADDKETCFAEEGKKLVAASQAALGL
Experimental: as §4, §5

[8] = Lipophilicity, chromatographic hydrophobicity index on C18 (Valko protocol); type: physicochemical
Experimental: as §4, §5

[9] = Metabolic stability in mouse liver microsomes; type: in vitro ADME; details: MLMs, 120 min
Description: Moving on to the next parameter, which is metabolism, we determined metabolic stability, using mouse liver microsomes (MLMs). […]
Main metabolic pathways are marked in red.

[10] = tested on: HSA and AGP in a ratio 24:1; details: human
HSA and AGP (24:1) = assay: in vitro; details: human, plasma

CC(=O)Nc1ccccc1 [Acetanilidine]
CHI IAM of the calibration set [1]: 11.5

CC(=O)c1ccccc1 [Acetophenone]
CHI IAM of the calibration set [1]: 17.2 | CHI C18 at pH 2.6 of the calibration set [2]: 64.1

CN(C)C/C=C/C(=O)Nc1cc2c(Nc3ccc(F)c(Cl)c3)ncnc2cc1O[C@H]1CCOC1 [Afatinib, reference compound]
IC50 ([3]; Homo sapiens, Astrocyte): 7.5 µM | IC50 (U-251 glioblastoma cells; Homo sapiens, U-251): 27 µM | IC50 ([4]; Homo sapiens, LN-229): 9.8 µM

c1ccc2[nH]cnc2c1 [Benzimidazole]
CHI C18 at pH 2.6 of the calibration set [2]: 6.3

CCCC(=O)c1ccccc1 [Butyrophenone]
CHI IAM of the calibration set [1]: 32 | CHI C18 at pH 2.6 of the calibration set [2]: 87.3

COc1cc2c(c(OC)c1OC)-c1ccc(OC)c(=O)cc1[C@@H](NC(C)=O)CC2 [Colichicine]
CHI C18 at pH 2.6 of the calibration set [2]: 43.9

CCCCCCC(=O)c1ccccc1 [Heptanophenone]
CHI IAM of the calibration set [1]: 45.7

CCCCCC(=O)c1ccccc1 [Hexanophenone]
CHI IAM of the calibration set [1]: 41.8

c1ccc2[nH]ccc2c1 [Indole]
CHI C18 at pH 2.6 of the calibration set [2]: 72.1

CCCCCCCC(=O)c1ccccc1 [Octanophenone]
CHI IAM of the calibration set [1]: 49.4

CC1NC(NCCCCCCNS(=O)(=O)c2cccc3ccccc23)=Nc2cccc(F)c21 (centres unmarked) [PP 11, N-{6-[(5-Fluoro-4-methyl-3,4-dihydroquinazolin-2-yl)amino]hexyl}naphthalene-1-sulfonamide]
IC50 (U87MG glioblastoma cells; Homo sapiens, U-87 MG): 8.5 ± 0.7 µM | IC50 ([5]; Homo sapiens, ASPC1): 13.8 ± 0.3 µM | IC50 ([3]; Homo sapiens, Astrocyte): 4.5 µM | IC50 [3]: 4.4 ± 1.3 µM | IC50 (MCF7 breast cancer cells; Homo sapiens, MCF7): 9.1 ± 0.8 µM | Ki (5-HT6): 0.222 ± 0.056 µM | IC50 (U-251 glioblastoma cells; Homo sapiens, U-251): 12.2 ± 0.3 µM | CHI IAM [6]: 60.1 | IC50 (1321N1 astrocytoma cells; Homo sapiens, 1321-N1): 5.7 ± 0.1 µM | %HSA ([7]; HSA column): 99.2% | logKHSA ([7]; HSA column): 1.75 and 1.8 | IC50 ([4]; Homo sapiens, LN-229): > 25 µM | CHI C18 pH 2.6 [8]: 103.4 | CHI C18 pH 7.4 [8]: 103.1 | CHI C18 pH 10.5 [8]: 93.1 | main metabolic pathway [9]: double hydroxylation and double bond reduction | metabolic stability, % of remaining [9]: 74.22%

O=S(=O)(NCCNc1ncc2ccccc2n1)c1cccc2ccccc12 [PP 14, N-{2-[(Quinazolin-2-yl)amino]ethyl}naphthalene-1-sulfonamide]
IC50 (U87MG glioblastoma cells; Homo sapiens, U-87 MG): > 25 µM | IC50 ([5]; Homo sapiens, ASPC1): > 25 µM | IC50 (MCF7 breast cancer cells; Homo sapiens, MCF7): > 25 µM | Ki (5-HT6): 4.18 ± 1.04 µM | IC50 (U-251 glioblastoma cells; Homo sapiens, U-251): > 25 µM | CHI IAM [6]: 37.2 | IC50 (1321N1 astrocytoma cells; Homo sapiens, 1321-N1): > 25 µM | %HSA ([7]; HSA column): 95.0% | logKHSA ([7]; HSA column): 1.2 | IC50 ([4]; Homo sapiens, LN-229): > 25 µM | CHI C18 pH 2.6 [8]: 78.3 | CHI C18 pH 7.4 [8]: 86.3 | CHI C18 pH 10.5 [8]: 87.1

CC(=O)Nc1ccc(O)cc1 [Paracetamol]
CHI IAM of the calibration set [1]: 2.9

CCC(=O)c1ccccc1 [Propiophenone]
CHI IAM of the calibration set [1]: 25.9 | CHI C18 at pH 2.6 of the calibration set [2]: 77.4

Cn1c(=O)c2[nH]cnc2n(C)c1=O [Theophylline]
CHI C18 at pH 2.6 of the calibration set [2]: 17.9

CCCCC(=O)c1ccccc1 [Valerophenone]
CHI IAM of the calibration set [1]: 37.3 | CHI C18 at pH 2.6 of the calibration set [2]: 96.4

CC(=O)CC(c1ccccc1)c1c(O)c2ccccc2oc1=O (centres unmarked) [Warfarin]
PPB kD [10]: 9.5 µM | fraction unbound (HSA and AGP (24:1)): 0.015

N-{2-[4-(1,2-Benzothiazol-3-yl)piperazin-1-yl]ethyl}-1,2-dihydroquinazolin-2-amine [PP 21]
IC50 [5]: 7.4 ± 0.5 µM | IC50 [3]: 4.7 ± 0.2 µM | IC50 (MCF7 breast cancer cells): > 25 µM | Ki (5-HT6): 0.605 ± 0.151 µM | IC50 (U-251 glioblastoma cells): 13 ± 0.4 µM | IC50 [4]: 9.9 ± 0.7 µM

N-{2-[4-(1-Benzothiophen-4-yl)piperazin-1-yl]ethyl}-1,2-dihydroquinazolin-2-amine [PP 22]
IC50 (U87MG glioblastoma cells): 13.8 ± 0.9 µM | IC50 [5]: 12.5 ± 0.4 µM | IC50 [3]: 8.1 ± 0.2 µM | IC50 (MCF7 breast cancer cells): 14.5 ± 0.2 µM | Ki (5-HT6): 0.278 ± 0.07 µM | IC50 (U-251 glioblastoma cells): 4.3 ± 0.6 µM | CHI IAM [6]: 56.4 | IC50 (1321N1 astrocytoma cells): 10.4 ± 0.6 µM | %HSA [7]: 98.4% | IC50 [4]: > 25 µM | CHI C18 pH 2.6 [8]: 56.4 | CHI C18 pH 7.4 [8]: 115.8 | CHI C18 pH 10.5 [8]: 168.7

— PMC11866022, “Long-Chain Cyclic Arylguanidines as Multifunctional Serotonin Receptor Ligands with Antiproliferative Activity” (ACS Omega, 2025)
